Measurements published in patent publication US20230212122A1, “MITOCHONDRIAL TARGETING COMPOUNDS FOR THE TREATMENT OF ASSOCIATED DISEASES” (The Regents of the University of Michigan, priority 2020, published 2023).

Test system: UM16 cell line
Test: GSEA of Bru-seq data (hallmark, KEGG, GO pathways, transcription factors)
Type: cell-based
Design: ES KEGG_MISMATCH_REPAIR / ES KEGG_HUNTINGTONS_DISEASE / ES KEGG_ALZHEIMERS_DISEASE / ES KEGG_VIBRIO_CHOLERAE_INFECTION / NES KEGG_VIBRIO_CHOLERAE_INFECTION / ES KEGG_RIBOSOME / NES KEGG_RIBOSOME / NES KEGG_RNA_POLYMERASE: dose or concentration left out as unconfirmed
Description: Consistent with this observation, there are also massive metabolite pathways influenced including starch and sucrose metabolism, glycolysis and gluconeogenesis, purine metabolism, pyrimidine metabolism, N-glycan biosynthesis, etc.

[1] = 5 μM, 4 hours, transcription factors
[2] = GO_AMIDE_BIOSYNTHETIC_PROCESS, 5 μM, 4 hours, FDR q-val 1.55E−04
[3] = GO_CYTOSOLIC_LARGE_RIBOSOMAL_SUBUNIT, 5 μM, 4 hours, FDR q-val 0
[4] = GO_CYTOSOLIC_PART, 5 μM, 4 hours, FDR q-val 0
[5] = GO_CYTOSOLIC_RIBOSOME, 5 μM, 4 hours, FDR q-val 0
[6] = GO_ESTABLISHMENT_OF_PROTEIN_LOCALIZATION_TO_ENDOPLASMIC_RETICULUM, 5 μM, 4 hours, FDR q-val 0
[7] = GO_LARGE_RIBOSOMAL_SUBUNIT, 5 μM, 4 hours, FDR q-val 0
[8] = GO_MATURATION_OF_SSU_RRNA, 5 μM, 4 hours, FDR q-val 6.60E−05
[9] = GO_MULTI_ORGANISM_METABOLIC_PROCESS, 5 μM, 4 hours, FDR q-val 0
[10] = GO_NCRNA_METABOLIC_PROCESS, 5 μM, 4 hours, FDR q-val 0
[11] = GO_NCRNA_PROCESSING, 5 μM, 4 hours, FDR q-val 0
[12] = GO_NUCLEAR_TRANSCRIBED_MRNA_CATABOLIC_PROCESS_NONSENSE_MEDIATED_DECAY, 5 μM, 4 hours, FDR q-val 3.62E−05
[13] = GO_NUCLEOLAR_PART, 5 μM, 4 hours, FDR q-val 0
[14] = GO_PEPTIDE_METABOLIC_PROCESS, 5 μM, 4 hours, FDR q-val 3.46E−05
[15] = GO_PRERIBOSOME, 5 μM, 4 hours, FDR q-val 0
[16] = GO_PROTEIN_LOCALIZATION_TO_ENDOPLASMIC_RETICULUM, 5 μM, 4 hours, FDR q-val 0
[17] = GO_RIBONUCLEOPROTEIN_COMPLEX_BIOGENESIS, 5 μM, 4 hours, FDR q-val 0
[18] = GO_RIBOSOMAL_SMALL_SUBUNIT_BIOGENESIS, 5 μM, 4 hours, FDR q-val 0
[19] = GO_RIBOSOMAL_SUBUNIT, 5 μM, 4 hours, FDR q-val 0
[20] = GO_RIBOSOME, 5 μM, 4 hours, FDR q-val 0
[21] = GO_RIBOSOME_BIOGENESIS, 5 μM, 4 hours, FDR q-val 0
[22] = GO_RRNA_BINDING, 5 μM, 4 hours, FDR q-val 0
[23] = GO_RRNA_METABOLIC_PROCESS, 5 μM, 4 hours, FDR q-val 0
[24] = GO_STRUCTURAL_CONSTITUENT_OF_RIBOSOME, 5 μM, 4 hours, FDR q-val 0
[25] = GO_TRANSLATIONAL_INITIATION, 5 μM, 4 hours, FDR q-val 0
[26] = GO_TRNA_PROCESSING, 5 μM, 4 hours, FDR q-val 3.79E−05
[27] = transcription factor set AAAYWAACM_HFH4_01, 5 μM, 4 hours, FDR q-val 0.013
[28] = transcription factor set AP4_Q5, 5 μM, 4 hours, FDR q-val 0.043
[29] = transcription factor set ATF1_Q6, 5 μM, 4 hours, FDR q-val 0.053
[30] = transcription factor set FAC1_01, 5 μM, 4 hours, FDR q-val 0.043
[31] = transcription factor set FOXO1_01, 5 μM, 4 hours, FDR q-val 0.039
[32] = transcription factor set FOXO3——01, 5 μM, 4 hours, FDR q-val 0.015
[33] = transcription factor set FREAC2_01, 5 μM, 4 hours, FDR q-val 0.008
[34] = transcription factor set HFH3_01, 5 μM, 4 hours, FDR q-val 0.042
[35] = transcription factor set OCT_Q6, 5 μM, 4 hours, FDR q-val 0.051
[36] = transcription factor set RTAAACA_FREAC2_01, 5 μM, 4 hours, FDR q-val 0.025

CCOC(=O)[C@@H]1CCCN(S(=O)(=O)c2ccc(S(=O)(=O)N(CC)CC)cc2)C1 [DX2-201, ethyl (R)-1-((4-(N,N-diethylsulfamoyl)phenyl)sulfonyl)piperidine-3-carboxylate]
ES E2F1_Q6 [1]: −0.355 | ES E2F1_Q6_01 [1]: −0.352 | ES E2F_03 [1]: −0.360 | ES E2F_Q6 [1]: −0.352 | ES GGAANCGGAANY_UNKNOWN [1]: −0.409 | ES MYCMAX_01 [1]: −0.425 | ES MYC_Q2 [1]: −0.429 | ES NMYC_01 [1]: −0.350 | ES SGCGSSAAA_E2F1DP2_01 [1]: −0.373 | ES YY1_Q6 [1]: −0.372 | NES E2F1_Q6 [1]: −1.568 | NES E2F1_Q6_01 [1]: −1.578 | NES E2F_03 [1]: −1.597 | NES E2F_Q6 [1]: −1.565 | NES GGAANCGGAANY_UNKNOWN [1]: −1.661 | NES MYCMAX_01 [1]: −1.853 | NES MYC_Q2 [1]: −1.792 | NES NMYC_01 [1]: −1.545 | NES SGCGSSAAA_E2F1DP2_01 [1]: −1.581 | NES YY1_Q6 [1]: −1.643 | ES KEGG_ALZHEIMERS_DISEASE (4 hours): −0.3872 | ES KEGG_HUNTINGTONS_DISEASE (4 hours): −0.4035 | ES KEGG_MISMATCH_REPAIR (4 hours): −0.6381 | ES KEGG_RIBOSOME (4 hours): −0.6266 | ES KEGG_VIBRIO_CHOLERAE_INFECTION (4 hours): −0.4430 | NES KEGG_RIBOSOME (4 hours): −2.4526 | NES KEGG_RNA_POLYMERASE (4 hours): −1.9613 | NES KEGG_VIBRIO_CHOLERAE_INFECTION (4 hours): −1.4689 | DNA repair and mismatch repair gene sets (Bru-seq) (4 hours of treatment): downregulated | glycolysis pathway (Bru-seq) (4 hours of treatment): dramatically upregulated | myc target gene sets and E2F target gene set (Bru-seq) (4 hours of treatment): downregulated | oxidative phosphorylation (Bru-seq) (4 hours of treatment): significantly downregulated | ES [2]: −0.454 | NES [2]: −2.193 | ES [3]: −0.629 | NES [3]: −2.298 | ES [4]: −0.537 | NES [4]: −2.371 | ES [5]: −0.626 | NES [5]: −2.548 | ES [6]: −0.589 | NES [6]: −2.417 | ES [7]: −0.585 | NES [7]: −2.298 | ES [8]: −0.642 | NES [8]: −2.206 | ES [9]: −0.557 | NES [9]: −2.388 | ES [10]: −0.528 | NES [10]: −2.591 | ES [11]: −0.594 | NES [11]: −2.802 | ES [12]: −0.539 | NES [12]: −2.231 | ES [13]: −0.630 | NES [13]: −2.294 | ES [14]: −0.461 | NES [14]: −2.222 | ES [15]: −0.648 | NES [15]: −2.348 | ES [16]: −0.563 | NES [16]: −2.329 | ES [17]: −0.552 | NES [17]: −2.663 | ES [18]: −0.653 | NES [18]: −2.377 | ES [19]: −0.581 | NES [19]: −2.491 | ES [20]: −0.589 | NES [20]: −2.626 | ES [21]: −0.616 | NES [21]: −2.869 | ES [22]: −0.650 | NES [22]: −2.367 | ES [23]: −0.604 | NES [23]: −2.757 | ES [24]: −0.539 | NES [24]: −2.395 | ES [25]: −0.590 | NES [25]: −2.521 | ES [26]: −0.559 | NES [26]: −2.240 | ES [27]: 0.431 | NES [27]: 1.896 | ES [28]: 0.393 | NES [28]: 1.743 | ES (transcription factor set AP4_Q6, 5 μM, 4 hours, FDR q-val 0.078): 0.377 | ES (transcription factor set AREB6_04, 5 μM, 4 hours, FDR q-val 0.098): 0.346 | ES [29]: 0.383 | NES [29]: 1.701 | ES (transcription factor set E47_01, 5 μM, 4 hours, FDR q-val 0.060): 0.363 | ES [30]: 0.394 | NES [30]: 1.751 | ES (transcription factor set FOXJ2_02, 5 μM, 4 hours, FDR q-val 0.090): 0.364 | ES [31]: 0.384 | NES [31]: 1.732 | ES (transcription factor set FOXO1_02, 5 μM, 4 hours, FDR q-val 0.007): 0.459 | ES [32]: 0.417 | NES [32]: 1.860 | ES (transcription factor set FOXO4_01, 5 μM, 4 hours, FDR q-val 0.014): 0.464 | ES (transcription factor set FOXO4_02, 5 μM, 4 hours, FDR q-val 0.007): 0.454 | ES [33]: 0.440 | NES [33]: 1.964 | ES (transcription factor set FREAC3_01, 5 μM, 4 hours, FDR q-val 0.058): 0.375 | ES [34]: 0.401 | NES [34]: 1.733 | ES (transcription factor set HNF3_Q6, 5 μM, 4 hours, FDR q-val 0.073): 0.392 | ES (transcription factor set NKX62_Q2, 5 μM, 4 hours, FDR q-val 0.058): 0.387 | ES (transcription factor set OCT1_Q5_01, 5 μM, 4 hours, FDR q-val 0.094): 0.357 | ES [35]: 0.381 | NES [35]: 1.697 | ES (transcription factor set PAX2_02, 5 μM, 4 hours, FDR q-val 0.061): 0.374 | ES [36]: 0.344 | NES [36]: 1.816 | ES (transcription factor set RYCACNNRNNRNCAG_UNKNOWN, 5 μM, 4 hours, FDR q-val 0.075): 0.462 | ES (transcription factor set TTANWNANTGGM_UNKNOWN, 5 μM, 4 hours, FDR q-val 0.051): 0.511 | ES (transcription factor set YWATTWNNRGCT_UNKNOWN, 5 μM, 4 hours, FDR q-val 0.059): 0.482
